Experimental data published in PMC4504870 (EJNMMI Research, 2015).
Like-named read-outs stand apart in the source and are kept apart here. Marks after values point to notes of the source that are not given here.

Experiments:
[1] = cited from earlier work
[2] = cited from earlier work; remark: listed apart in the source
[3] = 90 min after injection, 12 MBq i.v., anesthetized; cited from earlier work
[4] = Radiation dose of i.v. ^68Ga-citrate estimated from ^67Ga-citrate data (literature); parameters: species or system human; conditions: converted from 0.052 rem/mCi assuming only gamma radiation
[5] = parameters: method as in PMID 4743583; conditions: i.v., estimated from ^67Ga-citrate data, uniform distribution of radioactivity assumed; cited from earlier work
[6] = ref Tang 2003, Pauleit 2003 [22], [23]

## N[C@@H](Cc1cc(O)c(O)cc1[18F])C(=O)O [6-^18 F-Fluoro-L-Dopa]
[1]; calculated with biological risk weight factors of ICRP 30, ref Harvey 1985, Brown 1998 [20], [21]
  Animal derived ED: 0.0539^b mSv/MBq
[2]; ref Harvey 1985, Brown 1998 [20], [21]
  Human derived ED: 0.0199 mSv/MBq

## [11CH3]Nc1ccc(-c2nc3ccc(O)cc3s2)cc1 [^11C-6-OH-BTA-1]
[1]; males only, ref Parsey 2005, Scheinin 2007 [17], [18]
  Animal derived ED: 0.0065^a mSv/MBq
[2]; ref Parsey 2005, Scheinin 2007 [17], [18]
  Human derived ED: 0.0045 mSv/MBq

## C[N+](C)([11CH3])CCO [^11C-Choline]
[1]; ref Tolvanen 2010 [24]
  Animal derived ED: 0.0028 mSv/MBq
[2]; ref Tolvanen 2010 [24]
  Human derived ED: 0.0044 mSv/MBq

## N[C@@H](Cc1ccc(OCC[18F])cc1)C(=O)O [^18 F-FET, O-(2-[^18F]fluoroethyl)-L-tyrosine]
[1]; [6]
  Animal derived ED: 0.0186 mSv/MBq
[2]; [6]
  Human derived ED: 0.0165 mSv/MBq

## [68Ga+3].[Cl-].[Cl-].[Cl-] [^68Ga-chloride]
[3]
  SUV, blood: 2.7 ± 0.3
  SUV, liver: 5.9 ± 3.3
  SUV, lung: 1.9 ± 0.8
  SUV, muscle: 0.2 ± 0.03
  SUV, skin: 0.5 ± 0.1

## O=C([O-])CC(O)(CC(=O)[O-])C(=O)[O-].[68Ga+3] [^68Ga-citrate]
[4]
  Estimated absorbed dose for total body, converted: 0.014 mSv/MBq
[5]
  Estimated absorbed dose for total body: 0.052 rads/mCi

## carbon-11-methoxyprogabidic acid [^11C-MPGA]
[1]; ref Santens 1998 [19]
  Animal derived ED: 0.0048 mSv/MBq
[2]; ref Santens 1998 [19]
  Human derived ED: 0.0053 mSv/MBq
